From the supplement of paper PMC10307832

Experiments:
Assay in all cases: relative viability (nuclei count vs DMSO), 5 days (fraction); higher = more cells survive
NCI-H1623 = tested on: NCI-H1623
How it was run: (§1)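 One day after seeding in 1536-well plates, lung cancer cell lines were dosed by pin tool. Dosing was either single-drug or a fixed anchor-drug dose plus five library-drug doses (not always all listed) in √10 steps. After 5 days, nuclei were stained in one fix-and-stain step and counted on 4× images, and relative viability is the nuclei count of treated wells over that of vehicle wells, given as the median of duplicate plates.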

PC-3 [JPC-3] = tested on: PC-3 [JPC-3]
How it was run: as §1

NCI-H520 = tested on: NCI-H520
How it was run: as §1

NCI-H838 = tested on: NCI-H838
How it was run: as §1

NCI-H650 = tested on: NCI-H650
How it was run: as §1

NCI-H1651 = tested on: NCI-H1651
How it was run: as §1

NCI-H1944 = tested on: NCI-H1944
How it was run: as §1

NCI-H1648 = tested on: NCI-H1648
How it was run: as §1

RERF-LC-KJ = tested on: RERF-LC-KJ
How it was run: as §1

Cc1sc2c(c1C)C(c1ccc(Cl)cc1)=N[C@@H](CC(=O)OC(C)(C)C)c1nnc(C)n1-2 [JQ1] + COc1cccc2cc(-c3nc([C@H]4CC[C@H](C(=O)O)CC4)n4ncnc(N)c34)[nH]c12 [OSI-027] (partner 0.5 µM)
relative viability (NCI-H1623; first compound 0.04 µM): 0.446
relative viability (NCI-H1623; first compound 0.1265 µM): 0.433
relative viability (NCI-H1623; first compound 0.4 µM): 0.363
relative viability (NCI-H1623; first compound 1.265 µM): 0.328
relative viability (NCI-H1623; first compound 4 µM): 0.291
relative viability (PC-3 [JPC-3]; first compound 0.04 µM): 0.771
relative viability (PC-3 [JPC-3]; first compound 0.1265 µM): 0.823
relative viability (PC-3 [JPC-3]; first compound 0.4 µM): 0.739
relative viability (PC-3 [JPC-3]; first compound 1.265 µM): 0.653
relative viability (PC-3 [JPC-3]; first compound 4 µM): 0.445
relative viability (NCI-H520; first compound 0.04 µM): 0.211
relative viability (NCI-H520; first compound 0.1265 µM): 0.325
relative viability (NCI-H520; first compound 0.4 µM): 0.201
relative viability (NCI-H520; first compound 1.265 µM): 0.217
relative viability (NCI-H520; first compound 4 µM): 0.208
relative viability (NCI-H838; first compound 0.04 µM): 0.379
relative viability (NCI-H838; first compound 0.1265 µM): 0.369
relative viability (NCI-H838; first compound 0.4 µM): 0.433
relative viability (NCI-H838; first compound 1.265 µM): 0.251
relative viability (NCI-H838; first compound 4 µM): 0.21
relative viability (NCI-H650; first compound 0.04 µM): 0.584
relative viability (NCI-H650; first compound 0.1265 µM): 0.41
relative viability (NCI-H650; first compound 0.4 µM): 0.415
relative viability (NCI-H650; first compound 1.265 µM): 0.25
relative viability (NCI-H650; first compound 4 µM): 0.192
relative viability (NCI-H1651; first compound 0.04 µM): 0.624
relative viability (NCI-H1651; first compound 0.1265 µM): 0.638
relative viability (NCI-H1651; first compound 0.4 µM): 0.591
relative viability (NCI-H1651; first compound 1.265 µM): 0.391
relative viability (NCI-H1651; first compound 4 µM): 0.407
relative viability (NCI-H1944; first compound 0.04 µM): 0.39
relative viability (NCI-H1944; first compound 0.1265 µM): 0.364
relative viability (NCI-H1944; first compound 0.4 µM): 0.375
relative viability (NCI-H1944; first compound 1.265 µM): 0.227
relative viability (NCI-H1944; first compound 4 µM): 0.25
relative viability (NCI-H1648; first compound 0.04 µM): 0.285
relative viability (NCI-H1648; first compound 0.1265 µM): 0.287
relative viability (NCI-H1648; first compound 0.4 µM): 0.304
relative viability (NCI-H1648; first compound 1.265 µM): 0.206
relative viability (NCI-H1648; first compound 4 µM): 0.274
relative viability (RERF-LC-KJ; first compound 0.04 µM): 0.634
relative viability (RERF-LC-KJ; first compound 0.1265 µM): 0.518
relative viability (RERF-LC-KJ; first compound 0.4 µM): 0.531
relative viability (RERF-LC-KJ; first compound 1.265 µM): 0.335
relative viability (RERF-LC-KJ; first compound 4 µM): 0.338

Cc1sc2c(c1C)C(c1ccc(Cl)cc1)=N[C@@H](CC(=O)OC(C)(C)C)c1nnc(C)n1-2 [JQ1] + Cc1cc(Nc2cc(N3CCN(C)CC3)nc(Sc3ccc(NC(=O)C4CC4)cc3)n2)n[nH]1 [Tozasertib] (partner 0.1 µM)
relative viability (NCI-H1623; first compound 0.04 µM): 0.493
relative viability (NCI-H1623; first compound 0.1265 µM): 0.367
relative viability (NCI-H1623; first compound 0.4 µM): 0.404
relative viability (NCI-H1623; first compound 1.265 µM): 0.375
relative viability (NCI-H1623; first compound 4 µM): 0.335
relative viability (PC-3 [JPC-3]; first compound 0.04 µM): 0.924
relative viability (PC-3 [JPC-3]; first compound 0.1265 µM): 0.935
relative viability (PC-3 [JPC-3]; first compound 0.4 µM): 0.588
relative viability (PC-3 [JPC-3]; first compound 1.265 µM): 0.502
relative viability (PC-3 [JPC-3]; first compound 4 µM): 0.296
relative viability (NCI-H520; first compound 0.04 µM): 0.508
relative viability (NCI-H520; first compound 0.1265 µM): 0.406
relative viability (NCI-H520; first compound 0.4 µM): 0.332
relative viability (NCI-H520; first compound 1.265 µM): 0.296
relative viability (NCI-H520; first compound 4 µM): 0.25
relative viability (NCI-H838; first compound 0.04 µM): 0.26
relative viability (NCI-H838; first compound 0.1265 µM): 0.221
relative viability (NCI-H838; first compound 0.4 µM): 0.263
relative viability (NCI-H838; first compound 1.265 µM): 0.179
relative viability (NCI-H838; first compound 4 µM): 0.134
relative viability (NCI-H650; first compound 0.04 µM): 0.657
relative viability (NCI-H650; first compound 0.1265 µM): 0.541
relative viability (NCI-H650; first compound 0.4 µM): 0.368
relative viability (NCI-H650; first compound 1.265 µM): 0.21
relative viability (NCI-H650; first compound 4 µM): 0.177
relative viability (NCI-H1651; first compound 0.04 µM): 0.69
relative viability (NCI-H1651; first compound 0.1265 µM): 0.683
relative viability (NCI-H1651; first compound 0.4 µM): 0.672
relative viability (NCI-H1651; first compound 1.265 µM): 0.31
relative viability (NCI-H1651; first compound 4 µM): 0.24
relative viability (NCI-H1944; first compound 0.04 µM): 0.231
relative viability (NCI-H1944; first compound 0.1265 µM): 0.225
relative viability (NCI-H1944; first compound 0.4 µM): 0.227
relative viability (NCI-H1944; first compound 1.265 µM): 0.208
relative viability (NCI-H1944; first compound 4 µM): 0.185
relative viability (NCI-H1648; first compound 0.04 µM): 0.495
relative viability (NCI-H1648; first compound 0.1265 µM): 0.516
relative viability (NCI-H1648; first compound 0.4 µM): 0.243
relative viability (NCI-H1648; first compound 1.265 µM): 0.153
relative viability (NCI-H1648; first compound 4 µM): 0.137
relative viability (RERF-LC-KJ; first compound 0.04 µM): 0.496
relative viability (RERF-LC-KJ; first compound 0.1265 µM): 0.299
relative viability (RERF-LC-KJ; first compound 0.4 µM): 0.315
relative viability (RERF-LC-KJ; first compound 1.265 µM): 0.222
relative viability (RERF-LC-KJ; first compound 4 µM): 0.213
